Test results taken from patent publication US9504747B2, “Lipids and lipid compositions for the delivery of active agents” (Novartis AG, priority 2013, dated 2016).

Experiments:
[1] = Polydispersity index (PDI) of the lipid nanoparticle (dynamic light scattering); format: physicochemical
Text: The lipid nanoparticles (LNPs) were formed by mixing equal volumes of lipids dissolved in alcohol with siRNA dissolved in a citrate buffer by an impinging jet process. […] The siRNA to total lipid ratio is approximately 0.05 (wt/wt). Where a LNP formulation contains four lipid components, the molar ratios correspond to the type of lipid as it appears in the first four columns of the table, in the order that they appear. The ratio of the lipids ranges from 20 to 70 mole percent for the cationic lipid with a target of 40-60, the mole percent of helper lipid ranges from 20 to 70 with a target of 30 to 50, the mole percent of neutral lipid ranges from 0-30, the mole percent of PEG lipid has a range from 1 to 6 with a target of 2 to 5. The concentration of siRNA solution ranges from 0.7 to 1.0 mg/mL with a target of 0.8 to 0.9 mg/mL in a sodium citrate: sodium chloride buffer pH 4-6, with a target of 4.5-5.5. The LNPs are formed by mixing equal volumes of lipid solution in ethanol with siRNA dissolved in a citrate buffer by an impinging jet process through a mixing device with ID ranging from 0.25 to 2.0 mm at a flow rate from 10 to 640 mL/min. The mixed LNP solution is held at room temperature for 0-24 hrs prior to a dilution step. […] The final product is sterile filtered and stored at 4° C. Unless indicated otherwise, all PDIs referred to herein are the PDI of the fully formed nanoparticle, as measured by dynamic light scattering on a Malvern Zetasizer. The nanoparticle sample was diluted in phosphate buffered saline (PBS) so that the count rate was approximately 200-400 kcts. The data is presented in Tables 4 and 5 as a weighted average of the intensity measure.

[2] = pKa measurement of the cationic lipid (TNS fluorescence vs pH); format: physicochemical; conditions: probe TNS (fluorescent probe), pKa of the cationic lipid of formula (I)
Method: Unless indicated otherwise, all pKa's referred to herein were measured at standard temperature and pressure. Also, unless otherwise indicated, all references to pKa are references to pKa measured using the following technique. 2 mM solution of lipid in ethanol was prepared by weighing the lipid and then dissolving it in ethanol. 0.3 mM solution of fluorescent probe TNS in ethanol:methanol 9:1 was prepared by first making 3 mM solution of TNS in methanol and then diluting to 0.3 mM with ethanol. An aqueous buffer containing 200 mM sodium phosphate dibasic and 100 mM citric acid was prepared. […] Using the Hamilton Microlab Star high throughput liquid handler and Hamilton run control software Software, 7.5 uL of probe/lipid mix were added to 242.5 uL of buffer in a 1 mL 96 well plate (model NUNC 260252, […] Nunc International). This was done with all twelve buffers. After mixing in 1 mL 96 well plate, 100 uL of each probe/lipid/buffer mixture was transferred to a 250 uL black with clear bottom 96 well plate (model COSTAR 3904, Corning). The fluorescence measurements are carried out on the SpectraMax M5 spectrophotometer using software SoftMax pro 5.2 and following parameters: After the measurement, the background fluorescence value of an empty well on the 96 well plate was subtracted from each probe/lipid/buffer mixture. The fluorescence intensity values were then normalized to the value at lowest pH. The normalized fluorescence intensity vs. pH chart was then plotted in the Microsoft Excel software. The twelve points were connected with a smooth line. The point on the line at which the normalized fluorescence intensity was equal to 0.5 was found. […] The pKa determined using this method is precise to about 0.1 pKa units.

PLK-1 mRNA = experiment: LS411N Xenograft Assay with PLK1-424 siRNA lipid nanoparticles; format: in vivo, Female Nu/Nu mice; conditions: percent knock down of PLK-1 mRNA in tumor vs control, 3 mg/kg IV daily for three days, 24 h post last injection
Method: Female Nu/Nu mice (6-8 weeks old) were implanted subcutaneously with 5×10^6 LS411N cells. Tumor growth was monitored by caliper measurement before treatment initiation. Mice bearing 150-250 mm^3 subcutaneous tumors were randomized and enrolled in the study. The stock siRNA formulations were diluted to […] with PBS for dosing. Animals enrolled in different groups received a single daily bolus IV injection of 3 mg/kg siRNA for three days. Tumors were harvested 24 hours post last injection to assess target gene regulation by qRT-PCR.
Lipid nanoparticles comprising lipid compounds of formula (I) and the PLK1-424 siRNA duplex sequence listed above were tested in the LS411N Xenograft Assay. The results of this assay are given in Table 5 below as a percent knock down of PLK-1 mRNA as compared to the control when administered as a single daily dose for three days at a dose of 3 mg/kg.

[3] = tested on: respiratory syncytial virus F protein; experiment: Immunization studies: anti-RSV-F titers after liposome-delivered vA317 self-replicating RNA; format: in vivo; conditions: BALB/c mice, Course A = days 0 & 21, liposomes with 0.1 μg vA317 replicon (naked control 1 μg)
Method: BALB/c were immunized with liposomes comprising DSPC, cholesterol, and various lipids of the invention (or, for comparison, the cationic lipid 1,2-dilinoleyloxy-N,N-dimethyl-3-aminopropane or ‘DLinDMA’). The liposomes encapsulated 0.1 μg of “vA317” self-replicating RNA replicon which encodes respiratory syncytial virus F protein (see WO2012/031043). […] Doses were given either on days 0 & 21 or days 0 & 42. Immune responses were assessed 2 weeks after each dose (2wp1, 2wp2), and in some cases also at 4 weeks after the second dose (4wp2). Four series of experiments were performed, each with its own naked control.

[4] = Particle size of the lipid nanoparticle (dynamic light scattering, Malvern Zetasizer); format: physicochemical; conditions: Table 4, FVII siRNA LNP, Z-average
Text: The lipid nanoparticles have a size of about 1 to about 2,500 nm, about 1 to about 1,500 nm, about 1 to about 1,000 nm, in a sub-embodiment about 50 to about 600 nm, in a sub-embodiment about 50 to about 400 nm, in a sub-embodiment about 50 to about 250 nm, and in a sub-embodiment about 50 to about 150 nm. Unless indicated otherwise, all sizes referred to herein are the average sizes (diameters) of the fully formed nanoparticle, as measured by dynamic light scattering on a Malvern Zetasizer. The nanoparticle sample is diluted in phosphate buffered saline (PBS) so that the count rate is approximately 200-400 kcts. The data is presented as a weighted average of the intensity measure. The lipid nanoparticles (LNPs) were formed by mixing equal volumes of lipids dissolved in alcohol with siRNA dissolved in a citrate buffer by an impinging jet process. […] The siRNA to total lipid ratio is approximately 0.05 (wt/wt). Where a LNP formulation contains four lipid components, the molar ratios correspond to the type of lipid as it appears in the first four columns of the table, in the order that they appear. The ratio of the lipids ranges from 20 to 70 mole percent for the cationic lipid with a target of 40-60, the mole percent of helper lipid ranges from 20 to 70 with a target of 30 to 50, the mole percent of neutral lipid ranges from 0-30, the mole percent of PEG lipid has a range from 1 to 6 with a target of 2 to 5. The concentration of siRNA solution ranges from 0.7 to 1.0 mg/mL with a target of 0.8 to 0.9 mg/mL in a sodium citrate: sodium chloride buffer pH 4-6, with a target of 4.5-5.5. The LNPs are formed by mixing equal volumes of lipid solution in ethanol with siRNA dissolved in a citrate buffer by an impinging jet process through a mixing device with ID ranging from 0.25 to 2.0 mm at a flow rate from 10 to 640 mL/min. The mixed LNP solution is held at room temperature for 0-24 hrs prior to a dilution step. […] The final product is sterile filtered and stored at 4° C. Unless indicated otherwise, all particle size measurements referred to in Tables 4 and 5 are the Z-average particle size of the fully formed nanoparticle, as measured by dynamic light scattering on a Malvern Zetasizer. The nanoparticle sample was diluted in phosphate buffered saline (PBS) so that the count rate is approximately 200-400 kcts.

[5] = Table 4, FVII siRNA LNP, Chol/DSPC/stealth lipid PEG-DMG, 45/44/9/2
[6] = Table 4, FVII siRNA LNP, Chol/DSPC/stealth lipid S010, 45/44/9/2
[7] = Chol/DSPC/stealth lipid S010, molar ratio 45/44/9/2
[8] = Chol/DSPC/stealth lipid PEG-DMG, molar ratio 45/44/9/2

Structure (SMILES)	PDI [1, 6]	pKa ([2]; Table 4)	Size (nm) [4, 7] [nm]	also measured
CCCCCCCCCCOC(=O)CCCCCCCOc1cc(CN(C)C)cc(OCCCCCCCC(=O)OCCCCCCCCCC)c1 [Example 57]	0.059	5.94		PDI [1, 5]: 0.03; PDI ([1]; Table 5, PLK1-424 siRNA LNP, stealth lipid S010, 45/44/9/2): 0.038; pKa ([2]; Table 5): 5.94; LS411 KD 3 × 3 mg/Kg (PLK-1 mRNA; stealth lipid S010): 60%
CCCCC/C=C\C/C=C\CCCCCCCC(=O)OCCCCOc1cc(CN(C)C)cc(OCCCCOC(=O)CCCCCCC/C=C\CCCCCCCC)c1 [Example 63]	0.057	5.92		PDI ([1]; Table 5, PLK1-424 siRNA LNP, stealth lipid PEG-DSG, 45/44/9/2): 0.047; pKa ([2]; Table 5): 5.9; LS411 KD 3 × 3 mg/Kg (PLK-1 mRNA; stealth lipid PEG-DSG): 66%
CCCCC/C=C\C/C=C\CCCCCCCC(=O)OCc1cc(COC(=O)CCCCCCC/C=C\C/C=C\CCCCC)cc(COC(=O)OCCCN(CC)CC)c1 [Example 69]	0.053	5.3	98.13	anti-RSV-F titer 2wp1 pool 1 ([3]; 2 weeks after first dose): 2853; anti-RSV-F titer 2wp1 pool 2 ([3]; 2 weeks after first dose): 4481; anti-RSV-F titer 2wp2 pool 1 ([3]; 2 weeks after second dose): 23851; anti-RSV-F titer 2wp2 pool 2 ([3]; 2 weeks after second dose): 20793; anti-RSV-F titer 4wp2 pool 1 ([3]; 4 weeks after second dose): 19075; anti-RSV-F titer 4wp2 pool 2 ([3]; 4 weeks after second dose): 21504
CCCCC/C=C\C/C=C\CCCCCCCC(=O)OCCCC(=O)OCc1cc(COC(=O)CCCOC(=O)CCCCCCC/C=C\C/C=C\CCCCC)cc(CN(C)C)c1 [Example 82]	0.064	6.03	119.2	
CCCCCCCC(=O)OCCCCCCCCCC(=O)OCc1cc(COC(=O)CCCCCCCCCOC(=O)CCCCCCC)cc(CN(C)C)c1 [Example 86]	0.058	5.84	120.3	PDI [1, 5]: 0.05; Size (nm) [4, 8]: 128.7 nm
CCCCCCCC(=O)OCCCCCCCC(=O)OCc1cc(COC(=O)CCCCCCCOC(=O)CCCCCCC)cc(CN(C)C)c1 [Example 87]	0.089	6.07	159.2	
CCCCCCCCCC(=O)OCCCCCC(=O)OCc1cc(COC(=O)CCCCCOC(=O)CCCCCCCCC)cc(CN(C)C)c1 [Example 88]	0.046	5.99	152.4	
CCCCCCCC(=O)OCCCCCCCCCCOc1cc(CN(CC)CC)cc(OCCCCCCCCCCOC(=O)CCCCCCC)c1OCCCCCCCCCCOC(=O)CCCCCCC [Example 100]	0.121	6.17	105.9	PDI [1, 5]: 0.07; Size (nm) [4, 8]: 106.4 nm
CCCCCCCCCOC(=O)OCCCCCC(=O)OCc1cc(COC(=O)CCCCCOC(=O)OCCCCCCCCC)cc(CN(C)C)c1 [Example 106]	0.083	6.04	149.3	
CCCCC/C=C\C/C=C\CCCCCCCC(=O)OCCCCOc1cc(CN2CCCC2)cc(OCCCCOC(=O)CCCCCCC/C=C\C/C=C\CCCCC)c1 [Example 112]		6.08		PDI [1, 5]: 0.1; Size (nm) [4, 8]: 96.1 nm

More lines, main results first:

PDI [1, 6]	pKa ([2]; Table 4)	Size (nm) [4, 7] [nm]	Structure (SMILES)	also measured
0.065	5.92	117.3	CCCCCCCC(=O)OC[C@@H](CCOc1cc(CN(C)C)cc(OCC[C@@H](COC(=O)CCCCCCC)OC(=O)CCCCCCC)c1)OC(=O)CCCCCCC [Example 92]	
0.071	6	121.5	CCCCCCCC(=O)OC[C@H](CCOc1cc(CN(C)C)cc(OCC[C@@H](COC(=O)CCCCCCC)OC(=O)CCCCCCC)c1)OC(=O)CCCCCCC [Example 93]	
0.073	6.16	116.4	CCCCCCCC(=O)OC[C@@H](CCOc1cc(CN(C)C)cc(OCC[C@H](COC(=O)CCCCCCC)OC(=O)CCCCCCC)c1)OC(=O)CCCCCCC [Example 94]	
0.14	5.71	197.3	CCCCCCCCCC(=O)OCCCC(=O)OCCCOc1cc(CN(C)C)cc(OCCCOC(=O)CCCOC(=O)CCCCCCCCC)c1 [Example 96]	
0.071	5.66	183.3	CCCCCCCC(=O)OCC(CCCCOc1cc(CN(C)C)cc(OCCCCC(COC(=O)CCCCCCC)COC(=O)CCCCCCC)c1)COC(=O)CCCCCCC [Example 110]	
0.048	6.27	161.9	CCCCCCCC(=O)OCC(COC(=O)CCCCCCC)COc1cc(CN(C)C)cc(OCC(COC(=O)CCCCCCC)COC(=O)CCCCCCC)c1 [Example 111]	
